Experimental data published in US10556943B2, “HLA-DR binding peptides and their uses” (priority 2007, dated 2020).
Where two headings read alike, the source gives them in different places.

What was measured:
purified HLA DRB1*0404 = target: T1, purified HLA DRB1*0404 (Homo sapiens, UniProt P01903+P01911, A100R/A169T/F76Y/I96L/K127E/L162R/M171V/N62H/P40V/Q125Y/R42H/S133A/S149N/S66Y/V209L/W38E); experiment: HLA-DR radioligand binding inhibition assay, DRB1*0404
T1 construct: MHC molecules utilized were purified from EBV transformed homozygous cell lines or single MHC allele transfected 721.221, C1R, or fibroblast lines; made in house; host or cells: EBV transformed homozygous cell lines or single MHC allele transfected 721.221, C1R, or fibroblast lines
Method: (§1) Fifteen distinct HLA-DR molecules were used in quantitative assays to measure the binding of peptides to solubilized HLA-DR molecules. […] Briefly, columns of inactivated Sepharose CL4B and Protein A Sepharose were used as pre-columns. HLA-DR molecules were captured by passage of lysates over LB3.1 monoclonal antibody (anti-HLA-DRA) columns. Antibody columns were washed with 10 mM Tris-HCL, pH8.0 with 1% (v/v) NP-40, followed by PBS containing 0.4% (w/v) n-octylglucoside. […] The pH was reduced to 8.0 and the eluates were concentrated by centrifugation in Centriprep 30 concentrators at 2000 rpm (Amicon, Beverly, Mass.).
(§2) Briefly, 1-10 nM of radiolabeled peptide was co-incubated for 2 days at either room temperature or 37° C. with 1 μM to 1 nM purified HLA-DR molecules in the presence of a cocktail of protease inhibitors. Assays were performed at various pH conditions, ranging from pH 4 to pH 7. […] After incubation, the percentage of HLA-DR-bound radioactivity is determined by capturing HLA-DR/peptide complexes on Optiplates (Packard Instruments, Meriden, Conn.) coated with the LB3.1 antibody and determining bound counts per minute using the TopCount microscintillation counter (Packard Instruments). […] Competitor peptides are tested in 2-4 complete, independent experiments, at concentrations ranging from 30 μg/mL to 300 pg/mL.

purified HLA DRB1*0405 = target: T2, purified HLA DRB1*0405 (Homo sapiens, UniProt P01903+P01911, A100R/A169T/D86S/F76Y/I96L/K127E/L162R/M171V/N62H/P40V/Q125Y/R42H/S133A/S149N/S66Y/V115G/V209L/W38E); experiment: HLA-DR radioligand binding inhibition assay, DRB1*0405
T2 construct: MHC molecules utilized were purified from EBV transformed homozygous cell lines or single MHC allele transfected 721.221, C1R, or fibroblast lines; made in house; host or cells: EBV transformed homozygous cell lines or single MHC allele transfected 721.221, C1R, or fibroblast lines
Method: as §1, §2

purified HLA DRB5*0101 = target: T3, purified HLA DRB5*0101 (Homo sapiens, UniProt P01903+Q30154); experiment: HLA-DR radioligand binding inhibition assay, DRB5*0101
T3 construct: MHC molecules utilized were purified from EBV transformed homozygous cell lines or single MHC allele transfected 721.221, C1R, or fibroblast lines; made in house; host or cells: EBV transformed homozygous cell lines or single MHC allele transfected 721.221, C1R, or fibroblast lines
Method: as §1, §2

purified HLA DRB1*1101 = target: T4, purified HLA DRB1*1101 (Homo sapiens, UniProt P01903+P01911, A100R/A169T/A87E/I96F/K41T/L162R/M171V/P40S/Q125H/Q178H/Q39Y/Q99D/R42S/S66Y/T262R/V115G/W38E); experiment: HLA-DR radioligand binding inhibition assay, DRB1*1101
T4 construct: MHC molecules utilized were purified from EBV transformed homozygous cell lines or single MHC allele transfected 721.221, C1R, or fibroblast lines; made in house; host or cells: EBV transformed homozygous cell lines or single MHC allele transfected 721.221, C1R, or fibroblast lines
Method: as §1, §2

purified HLA DRB1*0401 = target: T5, purified HLA DRB1*0401 (Homo sapiens, UniProt P01903+P01911, A100K/A169T/F76Y/I96L/K127E/L162R/M171V/N62H/P40V/Q125Y/R42H/S133A/S149N/S66Y/V115G/V209L/W38E); experiment: HLA-DR radioligand binding inhibition assay, DRB1*0401
T5 construct: MHC molecules utilized were purified from EBV transformed homozygous cell lines or single MHC allele transfected 721.221, C1R, or fibroblast lines; made in house; host or cells: EBV transformed homozygous cell lines or single MHC allele transfected 721.221, C1R, or fibroblast lines
Method: as §1, §2

purified HLA DRB4*0101 = target: T6, purified HLA DRB4*0101 (Homo sapiens, UniProt P01903+P13762, G164S); experiment: HLA-DR radioligand binding inhibition assay, DRB4*0101
T6 construct: MHC molecules utilized were purified from EBV transformed homozygous cell lines or single MHC allele transfected 721.221, C1R, or fibroblast lines; made in house; host or cells: EBV transformed homozygous cell lines or single MHC allele transfected 721.221, C1R, or fibroblast lines
Method: as §1, §2

T4 sequence (P01903 26-254, other chains not shown): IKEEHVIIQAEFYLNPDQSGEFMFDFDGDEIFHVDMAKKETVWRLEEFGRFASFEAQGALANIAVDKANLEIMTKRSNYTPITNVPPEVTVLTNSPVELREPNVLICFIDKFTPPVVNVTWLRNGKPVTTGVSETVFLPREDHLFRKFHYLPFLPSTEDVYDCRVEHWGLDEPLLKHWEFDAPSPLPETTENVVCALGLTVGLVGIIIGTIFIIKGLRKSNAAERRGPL

**Q.** For `CSCC[C@H](NC(=O)[C@H](CCCNC(=N)N)NC(=O)[C@H](C)NC(=O)CN)C(=O)N1CCC[C@H]1C(=O)N[C@@H](CS)C(=O)N[C@@H](C)C(=O)N[C@@H](CCC(=O)O)C(=O)N[C@@H](CC(C)C)C(=O)N[C@H](C(=O)N[C@@H](CCCNC(=N)N)C(=O)N[C@@H](CCC(=O)O)C(=O)N1CCC[C@H]1C(=O)NCC(=O)N[C@@H](CS)C(=O)O)C(C)C` [Peptide 9019.0181], which IC50 (purified HLA DRB1*0404; read-out: IC50 to purified HLA DRB1*0404, purified HLA DRB1*0404) is on record?
**A.** Its IC50 is 13.1 µM.

**Q.** And the IC50 (purified HLA DRB1*0405; read-out: IC50 to purified HLA DRB1*0405, purified HLA DRB1*0405)?
**A.** The IC50 was greater than 20 µM.

**Q.** With `CC[C@H](C)[C@H](NC(=O)[C@H](CCCCN)NC(=O)[C@H](CCCNC(=N)N)NC(=O)[C@@H](N)CCSC)C(=O)N[C@H](C(=O)N[C@@H](C)C(=O)N[C@H](C(=O)N[C@@H](Cc1c[nH]c2ccccc12)C(=O)N[C@@H](CCSC)C(=O)N[C@@H](CC(C)C)C(=O)N[C@@H](CCC(=O)O)C(=O)N[C@H](C(=O)N[C@@H](CS)C(=O)N[C@@H](CCC(=O)O)C(=O)N[C@@H](CCC(=O)O)C(=O)O)C(C)C)[C@@H](C)O)C(C)C` [Peptide 9019.0151] as the molecule, how does the IC50 (purified HLA DRB1*0404) read?
**A.** Its IC50 is greater than 20 µM.

**Q.** What about the IC50 (purified HLA DRB5*0101) of the same molecule?
**A.** Its IC50 is 17 µM.

**Q.** And the IC50 (purified HLA DRB1*1101)?
**A.** Its IC50 is greater than 20 µM.

**Q.** How did the IC50 (purified HLA DRB1*0401; read-out: IC50 to purified HLA DRB1*0401, purified HLA DRB1*0401) turn out when `CC(C)C[C@H](NC(=O)[C@@H](NC(=O)[C@H](CS)NC(=O)[C@H](CO)NC(=O)CNC(=O)[C@@H](NC(=O)[C@H](CC(=O)O)NC(=O)[C@@H](NC(=O)[C@@H](N)CO)[C@@H](C)O)C(C)C)[C@@H](C)O)C(=O)N[C@H](C(=O)N[C@@H](CS)C(=O)N1CCC[C@H]1C(=O)N[C@@H](CC(C)C)C(=O)N[C@@H](Cc1c[nH]cn1)C(=O)N[C@@H](CC(N)=O)C(=O)O)C(C)C` [Peptide 9019.0043] was run?
**A.** The IC50 was greater than 20 µM.

**Q.** Which IC50 (purified HLA DRB5*0101) does the source give for `CC(C)C[C@H](NC(=O)[C@@H]1CCCN1C(=O)[C@H](CO)NC(=O)[C@@H]1CCCN1C(=O)[C@H](CC(=O)O)NC(=O)[C@H](Cc1c[nH]cn1)NC(=O)[C@@H](NC(=O)[C@@H]1CCCN1C(=O)[C@H](CC(C)C)NC(=O)[C@H](CO)NC(=O)[C@H](CCC(N)=O)NC(=O)[C@H](CC(C)C)NC(=O)CNC(=O)[C@H](CCCCN)NC(=O)[C@H](C)N)[C@@H](C)O)C(=O)O` [Peptide 9019.0098] here?
**A.** The IC50 was greater than 20 µM.

**Q.** Which results are given for `CC[C@H](C)[C@H](NC(=O)CNC(=O)[C@H](CC(=O)O)NC(=O)[C@H](Cc1ccc(O)cc1)NC(=O)[C@@H]1CCCN1C(=O)[C@H](CCCCN)NC(=O)[C@H](C)N)C(=O)N1CCC[C@H]1C(=O)N[C@@H](C)C(=O)N[C@@H](CCCNC(=N)N)C(=O)N[C@@H](CCC(=O)O)C(=O)N[C@H](C(=O)N1CCC[C@H]1C(=O)N[C@@H](CC(=O)O)C(=O)N[C@@H](CC(C)C)C(=O)O)[C@@H](C)CC` [Peptide 9019.0092]?
**A.** IC50 (purified HLA DRB1*0401): > 20 µM; IC50 (purified HLA DRB1*0404): > 20 µM; IC50 (purified HLA DRB1*1101): > 20 µM; IC50 (purified HLA DRB4*0101): > 20 µM

**Q.** `CC(C)C[C@H](NC(=O)[C@H](CC(=O)O)NC(=O)[C@H](CCCNC(=N)N)NC(=O)[C@@H](N)Cc1c[nH]cn1)C(=O)N[C@@H](C)C(=O)N[C@@H](C)C(=O)N[C@@H](CCCNC(=N)N)C(=O)N[C@@H](CC(N)=O)C(=O)N[C@H](C(=O)N[C@@H](CC(C)C)C(=O)N[C@H](C(=O)N[C@@H](CCCCN)C(=O)N[C@@H](CO)C(=O)N1CCC[C@H]1C(=O)N[C@@H](CC(N)=O)C(=O)O)C(C)C)C(C)C` [Peptide 9019.0085] was tested. Which IC50 (purified HLA DRB1*0405) did it give?
**A.** Its IC50 is 11.2 µM.
